Here are results for seven compounds from publication PMC2753600 (The FEBS journal, 2009).

Holding throughout (type): biochemical
In assay [1] the target is T1, purified wild-type human MAO A (Homo sapiens, UniProt P21397).
T1 sequence (P21397 1-527): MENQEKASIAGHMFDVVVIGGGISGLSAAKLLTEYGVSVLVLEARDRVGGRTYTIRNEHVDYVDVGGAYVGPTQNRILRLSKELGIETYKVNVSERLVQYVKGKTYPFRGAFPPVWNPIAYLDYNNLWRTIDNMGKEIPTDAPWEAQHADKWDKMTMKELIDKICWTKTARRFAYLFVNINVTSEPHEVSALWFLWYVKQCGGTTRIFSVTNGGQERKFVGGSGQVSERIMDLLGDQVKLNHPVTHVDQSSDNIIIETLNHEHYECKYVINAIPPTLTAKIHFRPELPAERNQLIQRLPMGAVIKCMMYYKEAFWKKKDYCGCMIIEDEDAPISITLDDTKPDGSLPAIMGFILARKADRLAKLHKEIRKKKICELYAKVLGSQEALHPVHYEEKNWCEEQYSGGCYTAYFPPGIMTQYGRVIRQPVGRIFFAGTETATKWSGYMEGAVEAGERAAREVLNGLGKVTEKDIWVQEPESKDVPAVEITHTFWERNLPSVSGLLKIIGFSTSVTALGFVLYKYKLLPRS
In words: Competitive inhibition of purified wild-type human MAO A.

Assay [2] addresses T2, purified human MAO A Ser209Ala mutant (Homo sapiens, UniProt P21397, S209A).
T2 sequence (P21397 1-527 S209A): T1 sequence (P21397 1-527) with S209A
Nature of the assay: Competitive inhibition of purified human MAO A Ser209Ala mutant.

Assay [3] addresses T3, purified human MAO A Ser209Glu mutant (Homo sapiens, UniProt P21397, S209E).
T3 sequence (P21397 1-527 S209E): T1 sequence (P21397 1-527) with S209E
Nature of the assay: Competitive inhibition of purified human MAO A Ser209Glu mutant. The conditions noted are these: for lower affinity for the Ser209Glu mutant than for the wild-type enzyme: purified Ser209Glu vs purified wild-type MAO A.

Assay [4] deals with T4, membrane-bound wild-type MAO A (Homo sapiens, UniProt P21397).
T4 sequence (P21397 1-527): T1 sequence (P21397 1-527)
Nature of the assay: Steady-state kinetics of membrane-bound wild-type MAO A. The conditions noted are these: 50 mM potassium phosphate pH 7.5.

The target in assay [5] is T5, membrane-bound MAO A Ser209Glu mutant (Homo sapiens, UniProt P21397, S209E).
T5 sequence (P21397 1-527 S209E): T1 sequence (P21397 1-527) with S209E
In words: Steady-state kinetics of membrane-bound MAO A Ser209Glu mutant. The conditions noted are these: 50 mM potassium phosphate pH 7.5.

One may read the Ki as the dissociation constant of the complex between target and ligand, obtained from inhibition or displacement. Lower therefore signals higher affinity. As usually defined, the Km is the concentration of substrate that gives half-maximal velocity. One may read the kcat as the maximal rate divided by the concentration of active sites.

Changes are numbered by the printed parent chain. Structures can show the parent of a compound that is named as a salt. Where two headings read alike, the source gives them in different places.

As for `C[C@H](N)Cc1ccccc1` [d-Amphetamine, d-amphetamine], the Ki was 3.69 ± 0.45 µM in assay [1], 4.72 ± 0.63 µM in assay [2] and 609 ± 31.6 µM in assay [3]. In addition, the “lower affinity for the Ser209Glu mutant than for the wild-type enzyme” value (shortened to “lower affinity”) in assay [3] stood at 160 fold.

As to `CC(C)(N)Cc1ccccc1` [Phentermine, phentermine], the “lower affinity” value in assay [3] was determined as 13 fold.

As to `NCCc1ccccc1` [Phenylethylamine, β-phenylethylamine], in assay [4], the Km was 470 ± 40 µM and the kcat was 0.8095 ± 0.0177 s⁻¹. In assay [5], the Michaelis constant (Km) was found to be 850 ± 70 µM and the kcat was 1.068 ± 0.0238 s⁻¹.

For the compound `O=C1Nc2ccccc2C1=O` [Isatin, isatin], in assay [3], the “lower affinity” value amounted to 20 fold.

For the compound `Cc1nccc2c1[nH]c1ccccc12` [Harmane], the “binding to the Ser209Glu mutant compared with wild-type or Ser209Ala MAO A” value in assay [3] (purified enzymes) is “much more weakly”.

Compound `c1cc2c(cc1C1CCCCC1)c1c3n2CCNC3CCC1` (stereo not drawn) [Tetrindole Mesylate, tetrindole mesylate] gave an inhibition constant (Ki) in assay [1] (competitive inhibition constant, purified wild-type human MAO A) of 5.27 ± 0.24 µM.

With `Cc1ccc2c(c1)c1c3n2CCNC3CCC1` (stereo not drawn) [Pirlindole Mesylate, pirlindole mesylate], the values for the Ki in assay [1], in assay [2] and in assay [3] were 0.92 ± 0.04 µM, 0.88 ± 0.18 µM and 21.5 ± 1.36 µM, respectively.
